US10894948B2, “Resetting pluripotent stem cells” (CAMBRIDGE ENTERPRISE LIMITED, priority 2014, dated 2021)

Legend:
[1] = tested on: reset cells and conventional PSC; test: Proliferation / colony formation in 2-deoxyglucose; format: cell-based, human; details: reset cells in contrast to conventional PSC, 7 days
Procedure: C & D. Proliferation in 2-deoxyglucose. After single cell dissociation, 3×10^4 cells were seeded on 12 wells and cultured for 7 days with indicated concentrations of 2-deoxyglucose (2DG) or reduced glucose. ROCKi was added to conventional PSC.
We examined functional consequences of altered metabolic properties by culture in 2-deoxyglucose to inhibit glycolysis and in reduced concentrations of glucose to increase dependency on mitochondrial respiration.

HNES cells = test: Colony formation of HNES cells in 2-deoxyglucose; format: cell-based, human; details: HNES cells versus HNES-primed cells
From the text: Primed PSC rely on anaerobic glycolysis with very low mitochondrial respiration capacity (Zhou et al., 2012). […] We evaluated the capacity of HNES cells to form colonies in the presence of the glycolysis inhibitor 2-deoxyglucose. […] HNES cells also stained intensely with MitoProbe™ DilC1, reflecting mitochondrial membrane potential (not shown).

SMILES: O=CC[C@@H](O)[C@H](O)[C@H](O)CO [2-deoxyglucose]
- colony formation in the presence of 2-deoxyglucose [1]: reset cells formed undifferentiated colonies
- colony formation in the presence of 2-deoxyglucose (HNES cells): Undifferentiated HNES cells readily formed colonies while HNES-primed cells did not survive
